US20230146455A1, “TREATMENT OF INFLAMMATORY DISEASES WITH PEPTIDES AND PHARMACEUTICAL COMPOSITIONS” (Yuyu Pharma, Inc., priority 2020, published 2023)
Values joined by “and” are separate entries in the source; they are usually repeats but may differ in a detail not shown here. Identical values can stand only once. Where a SMILES comes first, the peptide text is derived from it. [ ]: non-standard residue; d: D form. Hyp = O=C(O)[C@@H]1C[C@@H](O)CN1

Assays:
IL-6 = assay: Example 8 main study Luminex, LPS hPBMCs: IL-6; assay type: cell-based, human; settings: for LPS-induced IL-6 (in words): at as low as 5 μM, LPS 5 ug/mL 24 hrs
Protocol: (§1) Human PBMCs were pretreated with YY-101, YDE-011, YDE-043 or reference compound; Xiidra® at various concentration (ranging from […] to 500 nM) for 2 h before stimulation. An equal volume of 0.5% DMSO was used as a vehicle control. Then, the cells were treated with LPS at 5 ug/ml, which was selected based on the pilot study. The supernatants from treated cells were harvested at 24 h and placed in a 96 well for Luminex cytokine & chemokine profiling using a Luminex 200 multiplex assay (Luminex; R&D system, USA).
(§2) The main study arm with triplicate wells per group in a 24-well plate: • 1. Blank • 2. PBMC: 0.5% DMSO • 3. PBMC+LPS (5 ug/ml) • 4. PBMC+YY-101 500 nM • 5. PBMC+YY-101 50 nM • 6. PBMC+YY-101 5 nM • 7. PBMC+YY-101 0.5 nM • 8. PBMC+LPS (5 ug/ml)+Xiidra® 500 nM • 9. PBMC+LPS (5 ug/ml)+Xiidra® 50 nM • 10. PBMC+LPS (5 ug/ml)+Xiidra® 5 nM • 11. PBMC+LPS (5 ug/ml)+Xiidra® 0.5 nM • 12. PBMC+LPS (5 ug/ml)+Xiidra® 0.05 nM • 13. PBMC+LPS (5 ug/ml)+Xiidra® 0.005 nM • 14. PBMC+LPS (5 ug/ml)+YY-101 500 nM • 15. PBMC+LPS (5 ug/ml)+YY-101 50 nM • 16. PBMC+LPS (5 ug/ml)+YY-101 5 nM • 17. PBMC+LPS (5 ug/ml)+YY-101 0.5 nM • 18. PBMC+LPS (5 ug/ml)+YY-101 0.05 nM • 19. PBMC+LPS (5 ug/ml)+YY-101 0.005 nM • 20. PBMC+LPS (5 ug/ml)+YDE-011 500 nM • 21. PBMC+LPS (5 ug/ml)+YDE-011 50 nM • 22. PBMC+LPS (5 ug/ml)+YDE-011 5 nM • 23. PBMC+LPS (5 ug/ml)+YDE-011 0.5 nM • 24. PBMC+LPS (5 ug/ml)+YDE-011 0.05 nM • 25. PBMC+LPS (5 ug/ml)+YDE-011 0.005 nM • 26. PBMC+LPS (5 ug/ml)+YDE-043 500 nM • 27. PBMC+LPS (5 ug/ml)+YDE-043 50 nM • 28. PBMC+LPS (5 ug/ml)+YDE-043 5 nM • 29. PBMC+LPS (5 ug/ml)+YDE-043 0.5 nM • 30. PBMC+LPS (5 ug/ml)+YDE-043 0.05 nM • 31. PBMC+LPS (5 ug/ml)+YDE-043 0.005 nM
(§3) Multiplex assay was used to measure 30 cytokines and chemokines. The 1:200 diluted cell supernatant and serial dilution of the standard were dispensed into a 96 well plate at 50 ul/well. Then, the pre-mixed cocktail of antibody-coated magnetic beads was dispensed at 50 ul/well and incubated at room temperature for 2 h in a horizontal orbital microplate shaker at 800±500 rpm. The beads were washed using a magnetic device to prevent loss. The biotin-antibody was dispensed in 50 ul of each well and incubated at room temperature for 1 h in a shaker at 800±500 rpm. After washing, streptavidin-PE was added at 50 ul/well and incubated at room temperature for 30 min in a shaker under the same conditions. Finally, after washing, wash buffer (100 ul/well) was added to the plate and incubated in a shaker for 2 min. The Luminex™ 200 setting were set according to the manufacturer's protocol. The data was calculated with a standard five-parameter logistic nonlinear regression analysis of the data (xPonent software 4.2, USA). Results were presented as concentration (ng/ml or pg/ml).

IL-10 = assay: Example 8 main study Luminex, LPS hPBMCs: IL-10; assay type: cell-based, human; settings: for IL-10 Concentration: individual replicates; for IL-10 Concentration (pg/ml), Mean: mean of replicates; for LPS-induced IL-10 (in words): at as low as 5 μM, LPS 5 ug/mL 24 hrs
Protocol: as §1, §2, §3

[1] = PBMC + LPS(5 ug/ml) + test article 0.005 nM
[2] = PBMC + LPS(5 ug/ml) + test article 0.005 nM, single replicates (1st, 2nd, 3rd)
[3] = PBMC + LPS(5 ug/ml) + test article 0.05 nM
[4] = PBMC + LPS(5 ug/ml) + test article 0.05 nM, single replicates (1st, 2nd, 3rd)
[5] = PBMC + LPS(5 ug/ml) + test article 0.5 nM
[6] = PBMC + LPS(5 ug/ml) + test article 0.5 nM, single replicates (1st, 2nd, 3rd)
[7] = PBMC + LPS(5 ug/ml) + test article 5 nM
[8] = PBMC + LPS(5 ug/ml) + test article 5 nM, single replicates (1st, 2nd, 3rd)
[9] = PBMC + LPS(5 ug/ml) + test article 50 nM
[10] = PBMC + LPS(5 ug/ml) + test article 50 nM, single replicates (1st, 2nd, 3rd)
[11] = PBMC + LPS(5 ug/ml) + test article 500 nM
[12] = PBMC + LPS(5 ug/ml) + test article 500 nM, single replicates (1st, 2nd, 3rd)

CC(C)C[C@H](NC(=O)CNC(=O)[C@H](CC(C)C)NC(=O)[C@H](CCC(N)=O)NC(=O)CNC(=O)[C@@H]1C[C@@H](O)CN1)C(=O)N[C@@H](C)C(=O)NCC(=O)N1CCC[C@H]1C(=O)N[C@@H](CCCCN)C(=O)O [YDE-011] (H-[Hyp]GQLGLAGPK-OH)
IL-6 Concentration, Mean (IL-6; [1]): 16114.6 pg/mL
IL-6 Concentration (IL-6; [2]): 16843.8 pg/mL and 15250.9 pg/mL and 16249.2 pg/mL
IL-6 Concentration, Mean (IL-6; [3]): 18589.3 pg/mL
IL-6 Concentration (IL-6; [4]): 18843.4 pg/mL and 18343.3 pg/mL and 18581.4 pg/mL
IL-6 Concentration, Mean (IL-6; [5]): 15456.8 pg/mL
IL-6 Concentration (IL-6; [6]): 15322.2 pg/mL and 15654.9 pg/mL and 15393.5 pg/mL
IL-6 Concentration, Mean (IL-6; [7]): 13541.9 pg/mL
IL-6 Concentration (IL-6; [8]): 12094.3 pg/mL and 12947.9 pg/mL and 15583.6 pg/mL
IL-6 Concentration, Mean (IL-6; [9]): 14621.7 pg/mL
IL-6 Concentration (IL-6; [10]): 17248.3 pg/mL and 9892.0 pg/mL and 16724.9 pg/mL
IL-6 Concentration, Mean (IL-6; [11]): 14568.3 pg/mL
IL-6 Concentration (IL-6; [12]): 19367.5 pg/mL and 9383.5 pg/mL and 14953.9 pg/mL
LPS-induced IL-6 (in words) (IL-6): significantly reduced
IL-10 Concentration (IL-10; [1]): 624.7 pg/mL and 409.5 pg/mL and 531.7 pg/mL
IL-10 Concentration (pg/ml), Mean (IL-10; [1]): 521.9 pg/mL
IL-10 Concentration (IL-10; [3]): 729.2 pg/mL and 611.5 pg/mL and 651.0 pg/mL
IL-10 Concentration (pg/ml), Mean (IL-10; [3]): 663.9 pg/mL
IL-10 Concentration (IL-10; [5]): 409.5 pg/ml (2×) and 297.6 pg/ml
IL-10 Concentration (pg/ml), Mean (IL-10; [5]): 372.2 pg/mL
IL-10 Concentration (IL-10; [7]): 181.1 pg/mL and 210.8 pg/mL and 381.9 pg/mL
IL-10 Concentration (pg/ml), Mean (IL-10; [7]): 257.9 pg/mL
IL-10 Concentration (IL-10; [9]): 518.2 pg/mL and 845.0 pg/mL and <2.59 pg/mL
IL-10 Concentration (pg/ml), Mean (IL-10; [9]): 681.6 pg/mL
IL-10 Concentration (IL-10; [11]): 883.3 pg/mL and <2.59 pg/mL and 225.5 pg/mL
IL-10 Concentration (pg/ml), Mean (IL-10; [11]): 554.4 pg/mL
LPS-induced IL-10 (in words) (IL-10): significantly reduced

CC(C)C[C@H](NC(=O)CNC(=O)[C@H](CC(=O)O)NC(=O)[C@H](CCC(N)=O)NC(=O)CNC(=O)[C@@H]1C[C@@H](O)CN1)C(=O)N[C@@H](C)C(=O)NCC(=O)N1CCC[C@H]1C(=O)N[C@@H](CCCCN)C(=O)O [YY-101] (H-[Hyp]GQDGLAGPK-OH; N-terminus and C-terminus assumed)
IL-6 Concentration, Mean (IL-6; [1]): 18061.6 pg/mL
IL-6 Concentration (IL-6; [2]): 18760.0 pg/mL and 17676.7 pg/mL and 17748.1 pg/mL
IL-6 Concentration, Mean (IL-6; [3]): 18375.1 pg/mL
IL-6 Concentration (IL-6; [4]): 17605.3 pg/mL and 19105.4 pg/mL and 18414.7 pg/mL
IL-6 Concentration, Mean (IL-6; [5]): 18018.0 pg/mL
IL-6 Concentration (IL-6; [6]): 18069.4 pg/mL and 17248.3 pg/mL and 18736.2 pg/mL
IL-6 Concentration, Mean (IL-6; [7]): 17232.8 pg/mL
IL-6 Concentration (IL-6; [8]): 16606.0 pg/mL and 16439.5 pg/mL and 18652.8 pg/mL
IL-6 Concentration, Mean (IL-6; [9]): 16962.9 pg/mL
IL-6 Concentration (IL-6; [10]): 16320.6 pg/mL and 16689.2 pg/mL and 17879.0 pg/mL
IL-6 Concentration, Mean (IL-6; [11]): 17165.1 pg/mL
IL-6 Concentration (IL-6; [12]): 17129.3 pg/mL and 17748.1 pg/mL and 16617.9 pg/mL
IL-6 Concentration, Mean (IL-6; PBMC + test article 0.5 nM, no LPS): 16.2 pg/mL
IL-6 Concentration (IL-6; PBMC + test article 0.5 nM, no LPS, single replicates (1st, 2nd)): 5.0 pg/mL and 27.3 pg/mL
IL-6 Concentration, Mean (IL-6; PBMC + test article 5 nM, no LPS): 5.0 pg/mL
IL-6 Concentration (IL-6; PBMC + test article 5 nM, no LPS, single replicates (1st, 2nd)): 5.0 pg/mL
IL-6 Concentration, Mean (IL-6; PBMC + test article 0.05 uM, no LPS): 140.1 pg/mL
IL-6 Concentration (IL-6; PBMC + test article 0.05 uM, no LPS, single replicates (1st, 2nd)): 140.1 pg/mL and <2.65 pg/mL
IL-6 Concentration, Mean (IL-6; PBMC + test article 50 nM, no LPS): 5.0 pg/mL
IL-6 Concentration (IL-6; PBMC + test article 50 nM, no LPS, single replicates (1st, 2nd)): 5.0 pg/mL and <2.65 pg/mL
IL-6 Concentration (IL-6; PBMC + test article 500 nM, no LPS, single replicates (1st, 2nd)): <2.65 pg/mL
LPS-induced IL-6 (in words) (IL-6): significantly reduced
IL-10 Concentration (IL-10; [1]): 832.3 pg/mL and 677.1 pg/mL and 780.9 pg/mL
IL-10 Concentration (pg/ml), Mean (IL-10; [1]): 763.4 pg/mL
IL-10 Concentration (IL-10; [3]): 806.6 pg/mL and 1121.8 pg/mL and 883.3 pg/mL
IL-10 Concentration (pg/ml), Mean (IL-10; [3]): 937.2 pg/mL
IL-10 Concentration (IL-10; [5]): 870.5 pg/mL and 703.2 pg/mL and 716.2 pg/mL
IL-10 Concentration (pg/ml), Mean (IL-10; [5]): 763.3 pg/mL
IL-10 Concentration (IL-10; [7]): 857.8 pg/mL and 934.0 pg/mL and 1009.5 pg/mL
IL-10 Concentration (pg/ml), Mean (IL-10; [7]): 933.8 pg/mL
IL-10 Concentration (IL-10; [9]): 651.0 pg/mL and 845.0 pg/mL and 793.8 pg/mL
IL-10 Concentration (pg/ml), Mean (IL-10; [9]): 763.3 pg/mL
IL-10 Concentration (IL-10; [11]): 832.3 pg/mL and 883.3 pg/mL and 755.1 pg/mL
IL-10 Concentration (pg/ml), Mean (IL-10; [11]): 823.5 pg/mL
IL-10 Concentration (IL-10; PBMC + test article 0.5 nM, no LPS, dilution 200): <2.59 pg/mL
IL-10 Concentration (IL-10; PBMC + test article 5 nM, no LPS, dilution 200): <2.59 pg/mL
IL-10 Concentration (IL-10; PBMC + test article 0.05 uM, no LPS, dilution 200): <2.59 pg/mL
IL-10 Concentration (IL-10; PBMC + test article 50 nM, no LPS, dilution 200): <2.59 pg/mL
IL-10 Concentration (IL-10; PBMC + test article 500 nM, no LPS, dilution 200): <2.59 pg/mL
LPS-induced IL-10 (in words) (IL-10): significantly reduced
